Data: patent US9493430B2, “Biaryl- or heterocyclic biaryl-substituted cyclohexene derivative compounds as CETP inhibitors” (CHONG KUN DANG PHARMACEUTICAL CORP., priority 2013, dated 2016)

Tests used:
CETP = CETP (Homo sapiens (Human), UniProt P11597); assay: Test for inhibition of cholesteryl ester transfer (in vitro); assay type: biochemical; conditions: human plasma as CETP source, LDL from healthy persons as acceptor, rHDL-agarose donor, 37° C.
Excerpt: Test for Inhibition of Cholesteryl Ester Transfer (In Vitro)
1. Construction of Cholesteryl Ester Donor
To construct a cholesteryl ester donor to be used in the test, radiolabeled recombinant HDL containing […] (GE healthcare, TRK886, 3.5 μCi/mg of apoA-1) and apoA-1 was synthesized. Then, rHDL-agarose having the recombinant HDL immobilized thereon by CNBr-activated Sepharose 4B (Amersham Biosciences, Sweden) resin was used in the test.
2. Cholesteryl Ester Transfer Test
As a protein source for cholesteryl ester transfer, plasma from healthy persons was used, and as a cholesteryl ester receptor, LDL from healthy persons was used. Samples were treated with each test compound to final concentrations of 16, 80, 400, 2000 and 10000 nM and analyzed in duplicate. For the cholesteryl ester transfer test, 20 μl of plasma, 50 μl of LDL (0.25 mg/ml) and 50 μl of rHDL-agarose (0.25 mg/ml) were added, and a solution containing a test compound was added, followed by reaction at 37° C. Then, centrifugation was performed at 4° C. for 3 minutes to stop the reaction, and 150 μl of the supernatant was taken and transferred to a 96-well plate for radioactivity measurement, and the radioactivity of the plate was measured with a beta-ray detector.
(§1) 3. Statistical Processing
The ratio of [^3H]-cholesteryl oleate from HDL to LDL was calculated and used as a result value, and from the result value, IC50 value was calculated using GraphPad Prism 5.0.

golden Syrian hamsters = assay: Test for anti-hyperlipidemic effect in hamsters (in vivo); conditions: Mesocricetus auratus, po, 3 mg/kg orally for 5 days, blood 4 hours after final administration, vs control; for inhibition in vivo at 3 mg/kg: read-out: Decrease in LDL-c (%); for change in vivo at 3 mg/kg: read-out: Increase in HDL-c (%)
Excerpt: Test for Anti-Hyperlipidemic Effect in Hamsters (In Vivo)
In this test, 8-week-old male golden Syrian hamsters were used. The breeding room was maintained at constant temperature and constant humidity and a 12-hr light/12-hr dark cycle. The animals were allowed access to feed and water ad libitum.
2. Anti-Hyperlipidemic Test in Hamsters
The test animals were acclimated for 1 week before use in the test. The test animals were divided according to body weight into several groups, each consisting of 5-8 animals, and were then administered orally with a dose of 3 mg/kg. A solvent control and a CETP inhibitor were dissolved in imwitor 742: tween 80 (1:1) and administered orally for 5 days, and at 4 hours after the final administration, blood was collected from the heart. The collected blood was centrifuged at 3000 rpm for 15 minutes, and the separated serum was measured for HDL-Cholesterol (Biosystem) and LDL-Cholesterol (Biosystem) using a biochemical analysis instrument (ILab 300 plus, Instrumentation Laboratory).
as §1
All test results were expressed as Mean±SEM, and to evaluate the effect of each test group, each test group was compared with the control group using one-way ANOVA test (Dunnett's test, p<0.001).

Chain of CETP (P11597 18-493): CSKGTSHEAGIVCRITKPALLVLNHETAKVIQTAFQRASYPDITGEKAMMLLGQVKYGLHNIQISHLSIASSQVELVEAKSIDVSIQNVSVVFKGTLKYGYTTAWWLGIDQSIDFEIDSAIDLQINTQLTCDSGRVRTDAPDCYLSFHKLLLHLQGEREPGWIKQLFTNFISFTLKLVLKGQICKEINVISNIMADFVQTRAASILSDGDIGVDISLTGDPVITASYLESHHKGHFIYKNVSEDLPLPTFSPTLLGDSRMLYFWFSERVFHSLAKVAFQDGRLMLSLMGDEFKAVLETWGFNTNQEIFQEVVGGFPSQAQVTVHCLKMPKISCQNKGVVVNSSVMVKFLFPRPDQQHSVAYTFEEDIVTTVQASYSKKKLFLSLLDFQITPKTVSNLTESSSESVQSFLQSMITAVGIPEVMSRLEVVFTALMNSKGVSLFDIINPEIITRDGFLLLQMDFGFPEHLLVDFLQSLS

With `COc1ccc(-c2ccc(C(=O)O)cc2C)cc1C1=C(CN2C(=O)O[C@H](c3cc(C(F)(F)F)cc(C(F)(F)F)c3)[C@@H]2C)CC(C)(C)CC1` [Compound 554, 3′-(2-(((4S,5R)-5-(3,5-bis(trifluoromethyl)phenyl)-4-methyl-2-oxooxazolidin-3-yl)methyl)-4,4-dimethylcyclohex-1-enyl)-4′-methoxy-2-methylbiphenyl-4-carboxylic acid] the IC50 (CETP) was 5.8 nM, the inhibition in vivo at 3 mg/kg (golden Syrian hamsters) was 42% and the change in vivo at 3 mg/kg (golden Syrian hamsters) was 72%.

With `COc1ncc(-c2ccc(C(=O)O)cc2C)cc1C1=C(CN2C(=O)O[C@H](c3cc(C(F)(F)F)cc(C(F)(F)F)c3)[C@@H]2C)CC(C)(C)CC1` [Compound 557, 4-(3-(2-(((4S,5R)-5-(3,5-bis(trifluoromethyl)phenyl)-4-methyl-2-oxooxazolidin-3-yl)methyl)-4,4-dimethylcyclohex-1-enyl)-2-methoxypyridin-5-yl)-3-methylbenzoic acid] the IC50 (CETP) was 5.4 nM, the inhibition in vivo at 3 mg/kg (golden Syrian hamsters) was 39% and the change in vivo at 3 mg/kg (golden Syrian hamsters) was 77%.

Work on `COc1cc(F)c(-c2ccc(C(=O)O)cc2C)cc1C1=C(CN2C(=O)O[C@H](c3cc(C(F)(F)F)cc(C(F)(F)F)c3)[C@@H]2C)CC(C)(C)CC1` [Compound 574, 5′-(2-(((4S,5R)-5-(3,5-bis(trifluoromethyl)phenyl)-4-methyl-2-oxooxazolidin-3-yl)methyl)-4,4-dimethylcyclohex-1-enyl)-2′-fluoro-4′-methoxy-2-methylbiphenyl-4-carboxylic acid] yielded an IC50 (CETP) of 3.9 nM, an inhibition in vivo at 3 mg/kg (golden Syrian hamsters) of 36% and a change in vivo at 3 mg/kg (golden Syrian hamsters) of 41%.

For `COc1ncc(-c2ccc(C(=O)O)cc2Cl)cc1C1=C(CN2C(=O)O[C@H](c3cc(C(F)(F)F)cc(C(F)(F)F)c3)[C@@H]2C)CC(C)(C)CC1` [Compound 584, 4-(3-(2-(((4S,5R)-5-(3,5-bis(trifluoromethyl)phenyl)-4-methyl-2-oxooxazolidin-3-yl)methyl)-4,4-dimethylcyclohex-1-enyl)-2-methoxypyridin-5-yl)-3-chlorobenzoic acid], the IC50 (CETP) was 5.3 nM, the inhibition in vivo at 3 mg/kg (golden Syrian hamsters) was 40% and the change in vivo at 3 mg/kg (golden Syrian hamsters) was 46%.

`COc1ncc(-c2ccc(C(=O)O)cc2F)cc1C1=C(CN2C(=O)O[C@H](c3cc(C(F)(F)F)cc(C(F)(F)F)c3)[C@@H]2C)CC(C)(C)CC1` [Compound 586, 4-(3-(2-(((4S,5R)-5-(3,5-bis(trifluoromethyl)phenyl)-4-methyl-2-oxooxazolidin-3-yl)methyl)-4,4-dimethylcyclohex-1-enyl)-2-methoxypyridin-5-yl)-3-fluorobenzoic acid] gave an IC50 (CETP) of 13 nM, an inhibition in vivo at 3 mg/kg (golden Syrian hamsters) of 34% and a change in vivo at 3 mg/kg (golden Syrian hamsters) of 37%.

`COc1ccc(-c2c(F)cc(C(=O)O)cc2F)cc1C1=C(CN2C(=O)O[C@H](c3cc(C(F)(F)F)cc(C(F)(F)F)c3)[C@@H]2C)CC(C)(C)CC1` [Compound 593, 3′-(2-(((4S,5R)-5-(3,5-bis(trifluoromethyl)phenyl)-4-methyl-2-oxooxazolidin-3-yl)methyl)-4,4-dimethylcyclohex-1-enyl)-2,6-difluoro-4′-methoxybiphenyl-4-carboxylic acid] showed an IC50 (CETP) of 1.5 nM, an inhibition in vivo at 3 mg/kg (golden Syrian hamsters) of 29% and a change in vivo at 3 mg/kg (golden Syrian hamsters) of 61%.

With `COc1ccc(-c2ccc(C(=O)O)cc2C(F)(F)F)cc1C1=C(CN2C(=O)O[C@H](c3cc(C(F)(F)F)cc(C(F)(F)F)c3)[C@@H]2C)CC(C)(C)CC1` [Compound 618, 3′-(2-(((4S,5R)-5-(3,5-bis(trifluoromethyl)phenyl)-4-methyl-2-oxooxazolidin-3-yl)methyl)-4,4-dimethylcyclohex-1-enyl)-4′-methoxy-2-(trifluoromethyl)biphenyl-4-carboxylic acid] the IC50 (CETP) was 1.6 nM, the inhibition in vivo at 3 mg/kg (golden Syrian hamsters) was 26% and the change in vivo at 3 mg/kg (golden Syrian hamsters) was 65%.

`COc1cc(F)c(-c2ccc(C(=O)O)cc2Cl)cc1C1=C(CN2C(=O)O[C@H](c3cc(C(F)(F)F)cc(C(F)(F)F)c3)[C@@H]2C)CC(C)(C)CC1` [Compound 631, 5′-(2-(((4S,5R)-5-(3,5-bis(trifluoromethyl)phenyl)-4-methyl-2-oxooxazolidin-3-yl)methyl)-4,4-dimethylcyclohex-1-enyl)-2-chloro-2′-fluoro-4′-methoxybiphenyl-4-carboxylic acid] was tested, and the IC50 (CETP) was 1.9 nM, the inhibition in vivo at 3 mg/kg (golden Syrian hamsters) was 30% and the change in vivo at 3 mg/kg (golden Syrian hamsters) was 56%.

With `COc1ccc(-c2ccc(C(=O)O)cc2Cl)cc1C1=C(CN2C(=O)O[C@H](c3cc(C(F)(F)F)cc(C(F)(F)F)c3)[C@@H]2C)CC(C)(C)CC1` [Compound 643, 3′-(2-(((4S,5R)-5-(3,5-bis(trifluoromethyl)phenyl)-4-methyl-2-oxooxazolidin-3-yl)methyl)-4,4-dimethylcyclohex-1-enyl)-2-chloro-4′-methoxybiphenyl-4-carboxylic acid] the IC50 (CETP) was 7.3 nM, the inhibition in vivo at 3 mg/kg (golden Syrian hamsters) was 17% and the change in vivo at 3 mg/kg (golden Syrian hamsters) was 68%.

Compound `Cc1cc(C(=O)O)ccc1-c1cc(F)cc(C2=C(CN3C(=O)O[C@H](c4cc(C(F)(F)F)cc(C(F)(F)F)c4)[C@@H]3C)CC(C)(C)CC2)c1` [Compound 650, 3′-(2-(((4S,5R)-5-(3,5-bis(trifluoromethyl)phenyl)-4-methyl-2-oxooxazolidin-3-yl)methyl)-4,4-dimethylcyclohex-1-enyl)-5′-fluoro-2-methylbiphenyl-4-carboxylic acid] has an IC50 (CETP) of 11.9 nM, an inhibition in vivo at 3 mg/kg (golden Syrian hamsters) of 24% and a change in vivo at 3 mg/kg (golden Syrian hamsters) of 50%.

With `COc1cc(F)c(-c2ccc(C(=O)O)cc2F)cc1C1=C(CN2C(=O)O[C@H](c3cc(C(F)(F)F)cc(C(F)(F)F)c3)[C@@H]2C)CC(C)(C)CC1` [Compound 661, 5′-(2-(((4S,5R)-5-(3,5-bis(trifluoromethyl)phenyl)-4-methyl-2-oxooxazolidin-3-yl)methyl)-4,4-dimethylcyclohex-1-enyl)-2,2′-difluoro-4′-methoxybiphenyl-4-carboxylic acid] the IC50 (CETP) was 2.5 nM, the inhibition in vivo at 3 mg/kg (golden Syrian hamsters) was 20% and the change in vivo at 3 mg/kg (golden Syrian hamsters) was 53%.

With `C[C@H]1[C@@H](c2cc(C(F)(F)F)cc(C(F)(F)F)c2)OC(=O)N1CC1=C(c2cc(F)cc(-c3ccc(C(=O)O)cc3C(F)(F)F)c2)CCC(C)(C)C1` [Compound 668, 3′-(2-(((4S,5R)-5-(3,5-bis(trifluoromethyl)phenyl)-4-methyl-2-oxooxazolidin-3-yl)methyl)-4,4-dimethylcyclohex-1-enyl)-5′-fluoro-2-(trifluoromethyl)biphenyl-4-carboxylic acid] the IC50 (CETP) was 5 nM, the inhibition in vivo at 3 mg/kg (golden Syrian hamsters) was 16% and the change in vivo at 3 mg/kg (golden Syrian hamsters) was 44%.

With `C[C@H]1[C@@H](c2cc(C(F)(F)F)cc(C(F)(F)F)c2)OC(=O)N1CC1=C(c2cc(-c3ccc(C(=O)O)cc3Cl)ccc2F)CCC(C)(C)C1` [Compound 739, 3′-(2-(((4S,5R)-5-(3,5-bis(trifluoromethyl)phenyl)-4-methyl-2-oxooxazolidin-3-yl)methyl)-4,4-dimethylcyclohex-1-enyl)-2-chloro-4′-fluorobiphenyl-4-carboxylic acid] the IC50 (CETP) was 20.3 nM.

For `C[C@H]1[C@@H](c2cc(C(F)(F)F)cc(C(F)(F)F)c2)OC(=O)N1CC1=C(c2cc(-c3ccc(C(=O)O)cc3F)cc(C(F)(F)F)c2)CCC(C)(C)C1` [Compound 748, 3′-(2-(((4S,5R)-5-(3,5-bis(trifluoromethyl)phenyl)-4-methyl-2-oxooxazolidin-3-yl)methyl)-4,4-dimethylcyclohex-1-enyl)-2-fluoro-5′-(trifluoromethyl)biphenyl-4-carboxylic acid], the IC50 (CETP) was 15.9 nM.

`CCNC(=O)c1ccc(-c2ccc(F)c(C3=C(CN4C(=O)O[C@H](c5cc(C(F)(F)F)cc(C(F)(F)F)c5)[C@@H]4C)CC(C)(C)CC3)c2)c(C(F)(F)F)c1` [Compound 756, 3′-(2-(((4S,5R)-5-(3,5-bis(trifluoromethyl)phenyl)-4-methyl-2-oxooxazolidin-3-yl)methyl)-4,4-dimethylcyclohex-1-enyl)-N-ethyl-4′-fluoro-2-(trifluoromethyl)biphenyl-4-carboxamide] gave an IC50 (CETP) of 5.9 nM.

`COc1ccc(-c2ccc(C(=O)O)cc2C(F)(F)F)nc1C1=C(CN2C(=O)O[C@H](c3cc(C(F)(F)F)cc(C(F)(F)F)c3)[C@@H]2C)CC(C)(C)CC1` [Compound 764, 4-(2-(2-(((4S,5R)-5-(3,5-bis(trifluoromethyl)phenyl)-4-methyl-2-oxooxazolidin-3-yl)methyl)-4,4-dimethylcyclohex-1-enyl)-3-methoxypyridin-6-yl)-3-(trifluoromethyl)benzoic acid] was tested, and the IC50 (CETP) was 8.9 nM.
